Experimental data reported in ChEMBL document CHEMBL4421722, “Inhibitors of protein prenyltransferases” (2013).

Key:
Rattus norvegicus [1] = species: Rattus norvegicus; test: Inhibition of rat recombinant geranylgeranyltransferase type I expressed in Escherichia coli assessed as residual enzyme activity for geranylgeranylation of K-Ras4B at 50 uM incubated for 30 mins in presence of [3H]GGPP by scintillation counting assay relative to control
Rattus norvegicus [2] = species: Rattus norvegicus; test: Inhibition of rat recombinant geranylgeranyltransferase type I expressed in Escherichia coli assessed as residual enzyme activity for geranylgeranylation of RhoA at 50 uM incubated for 30 mins in presence of [3H]GGPP by scintillation counting assay relative to control

Row | SMILES | Activity (Rattus norvegicus [1]) [%] | Activity (Rattus norvegicus [2]) [%]
1 | CCCCS[C@@H]1C[C@@H](c2cccc(Br)c2)N(S(=O)(=O)c2ccc(C)cc2)C[C@H]1C(=O)O | 5.9 to 9 | -1.5
2 | Cc1ccc([C@@H]2C[C@@H](Sc3ccc(Cl)cc3)[C@H](C(=O)O)CN2S(=O)(=O)c2ccccc2)cc1 | 78.3 | 17.2
3 | Cc1ccc(S(=O)(=O)N2[C@H](CC3CCCC3)[C@@H](SCCC(=O)OC(C)(C)C)[C@@H](C(=O)O)[C@@H]2c2cccc(F)c2)cc1 | 31.9 | 8.2
4 | CCC[C@@H]1[C@@H](SCCC(=O)OC(C)(C)C)[C@@H](C(=O)O)[C@H](c2ccc(Cl)cc2)N1S(=O)(=O)c1ccc(Cl)cc1 | 21.7 | 9.2
5 | COc1ccc(S[C@H]2[C@@H](C(=O)O)[C@H](c3ccc(Cl)cc3)N(S(=O)(=O)c3ccc(Cl)cc3)[C@@H]2C(C)C)cc1 | 48.7 | 8
6 | COc1ccc([C@@H]2C[C@@H](SCc3ccccc3)[C@H](C(=O)O)CN2S(=O)(=O)c2ccc(Cl)cc2)cc1 | 25.9 to 28.7 | 11.9
7 | COc1ccc([C@@H]2C[C@@H](SCCc3ccccc3)[C@H](C(=O)O)CN2S(=O)(=O)c2ccccc2C)cc1 | 15.2 to 19.5 | 6
8 | Cc1ccc(S(=O)(=O)N2C[C@@H](C(=O)O)[C@H](Sc3ccccc3)C[C@H]2c2ccc(Cl)cc2)cc1 | 40 | 4.6
9 | CCCCS[C@@H]1C[C@@H](c2cccc(Cl)c2)N(S(=O)(=O)c2ccc(C)cc2)C[C@H]1C(=O)O | 8.5 to 16.7 | -1.2
10 | Cc1ccc([C@@H]2C[C@@H](Sc3ccc(Cl)cc3)[C@H](C(=O)O)CN2S(=O)(=O)c2ccccc2C)cc1 | 4 to 6 | -4.7 to 10.5
11 | COc1ccc([C@@H]2C[C@@H](SCc3ccc(Cl)cc3)[C@H](C(=O)O)CN2S(=O)(=O)c2ccccc2)cc1 | 29.2 to 31.9 | 13.4
12 | COc1ccc([C@@H]2C[C@@H](Sc3ccc(Cl)cc3)[C@H](C(=O)O)CN2S(=O)(=O)c2ccccc2C)cc1 | 72.2 | 17.7
13 | Cc1ccc(S(=O)(=O)N2C[C@@H](C(=O)O)[C@H](SCc3ccccc3)C[C@H]2c2cccc(Br)c2)cc1 | 5.5 to 7.6 | 2.9
14 | O=C(O)C1=CC[C@@H](c2ccc(Cl)cc2)N(S(=O)(=O)c2ccc(Cl)cc2)[C@H]1c1cccc(Cl)c1 | 33.1 | 26.7
15 | C=CCS[C@H]1[C@@H](C(=O)O)[C@H](c2ccc(Cl)c(Cl)c2)N(S(=O)(=O)c2ccc(C)cc2)[C@@H]1CCCC | 21.4 | 9.6
16 | CCc1ccc([C@@H]2C[C@@H](SCCc3ccccc3)[C@H](C(=O)O)CN2S(=O)(=O)c2ccc(C)cc2)cc1 | 2.3 to 3 | 2.9
17 | Cc1ccc(S(=O)(=O)N2[C@@H](c3cccc(C)c3)C(C(=O)O)=CC[C@H]2c2ccc(Cl)c(Cl)c2)cc1 | 12.6 to 20.2 | 10.3
18 | COc1ccc([C@@H]2C[C@@H](SCCc3ccccc3)[C@H](C(=O)O)CN2S(=O)(=O)c2ccc(C)cc2)cc1 | 28.8 to 29.9 | 6.1
19 | Cc1ccccc1S(=O)(=O)N1C[C@@H](C(=O)O)[C@H](Sc2ccccc2)C[C@H]1c1ccc(Cl)cc1 | 75.5 | 7.8
20 | Cc1ccccc1S(=O)(=O)N1[C@@H](c2ccccc2F)C(C(=O)O)=CC[C@H]1c1ccc(Cl)cc1 | 8.4 | 4.1

Row | SMILES | Activity (Rattus norvegicus [1]) [%] | Activity (Rattus norvegicus [2]) [%]
21 | Cc1ccc(S(=O)(=O)N2C[C@@H](C(=O)O)[C@H](SCCc3ccccc3)C[C@H]2c2ccccc2F)cc1 | 3.4 to 6.8 | 3.1
22 | Cc1ccc(S(=O)(=O)N2C[C@@H](C(=O)O)[C@H](SCCc3ccccc3)C[C@H]2c2ccccc2)cc1 | 15.2 to 16.5 | 5.8
23 | Cc1ccc([C@@H]2C[C@@H](SCc3ccccc3)[C@H](C(=O)O)CN2S(=O)(=O)c2ccccc2C)cc1 | 32 to 35.6 | 17.5
24 | Cc1ccc(S(=O)(=O)N2C[C@@H](C(=O)O)[C@H](SCC(C)C)C[C@H]2c2cccc(Br)c2)cc1 | 11.4 to 18.8 | 1.3
25 | Cc1ccc([C@@H]2C[C@@H](SCc3ccc(Cl)cc3)[C@H](C(=O)O)CN2S(=O)(=O)c2ccccc2C)cc1 | 19.6 to 20.4 | 10.5
26 | C=CCS[C@H]1[C@@H](C(=O)O)[C@H](c2ccc(Cl)cc2)N(S(=O)(=O)c2ccccc2C)[C@@H]1CCC | 28.4 | 8.9
27 | CCC[C@@H]1[C@@H](Sc2ccc(C)cc2)[C@@H](C(=O)O)[C@H](c2cccc(F)c2)N1S(=O)(=O)c1ccc(C)cc1 | 14.7 | 4.1
28 | Cc1ccc(S(=O)(=O)N2C[C@@H](C(=O)O)[C@H](SCc3ccc(Cl)cc3)C[C@H]2c2ccccc2)cc1 | 23.7 to 24.8 | 14.2
29 | Cc1ccccc1S(=O)(=O)N1[C@@H](c2ccc(F)cc2)C(C(=O)O)=CC[C@H]1c1ccc(Cl)cc1 | 15.6 to 28.8 | 12.6
30 | Cc1ccc(S(=O)(=O)N2C[C@@H](C(=O)O)[C@H](SCc3ccc(Cl)cc3)C[C@H]2c2ccc(Cl)cc2)cc1 | 15.5 to 18.1 | 4.9
31 | COc1ccc([C@@H]2C[C@@H](SCc3ccc(Cl)cc3)[C@H](C(=O)O)CN2S(=O)(=O)c2ccccc2C)cc1 | 23.9 to 30.9 | 0.5
32 | C=CCS[C@H]1[C@@H](C(=O)O)[C@H](c2cccc(F)c2)N(S(=O)(=O)c2ccc(C)cc2)[C@@H]1CC1CCCC1 | 30.4 | 9.7
33 | Cc1ccccc1S(=O)(=O)N1[C@@H](c2cccc(Br)c2)C(C(=O)O)=CC[C@H]1c1ccc(Cl)cc1 | 10.6 to 19.2 | 8.8
34 | Cc1ccc(S(=O)(=O)N2C[C@@H](C(=O)O)[C@H](SCCc3ccccc3)C[C@H]2c2ccc3c(c2)OCO3)cc1 | 6.5 to 9.2 | 2
35 | CCCCS[C@H]1[C@@H](C(=O)O)[C@H](c2cccc(F)c2)N(S(=O)(=O)c2ccc(C)cc2)[C@@H]1CCCC | 23.5 | 7.1
36 | Cc1ccc(S(=O)(=O)N2C[C@@H](C(=O)O)[C@H](SCc3ccc(Cl)cc3)C[C@H]2c2cccc(Cl)c2)cc1 | 11.9 to 13.5 | 6
37 | Cc1ccc(S(=O)(=O)N2C[C@@H](C(=O)O)[C@H](SCCc3ccccc3)C[C@H]2c2cccc(Br)c2)cc1 | 4.7 to 7.3 | 3.1
38 | Cc1ccccc1S(=O)(=O)N1[C@@H](c2cccc(F)c2)C(C(=O)O)=CC[C@H]1c1ccc(Cl)cc1 | 5.4 to 13.4 | 3
39 | C=CCS[C@H]1[C@@H](C(=O)O)[C@H](c2ccc(C#N)cc2)N(S(=O)(=O)c2ccc(C)cc2)[C@@H]1C(C)C | 23.1 | 9.3
40 | Cc1ccc(S(=O)(=O)N2[C@@H](c3cccc(Br)c3)C(C(=O)O)=CC[C@H]2c2ccc(Cl)c(Cl)c2)cc1 | 8.6 to 24.9 | 3.2

Row | SMILES | Activity (Rattus norvegicus [1]) [%] | Activity (Rattus norvegicus [2]) [%]
41 | C=CCS[C@H]1[C@@H](C(=O)O)[C@H](c2ccc(OC)c(OC)c2)N(S(=O)(=O)c2ccc(C)cc2)[C@@H]1CCCCCC | 22.3 | 8.1
42 | CCC[C@@H]1[C@@H](Sc2ccc(OC)cc2)[C@@H](C(=O)O)[C@H](c2cccc(F)c2)N1S(=O)(=O)c1ccc(C)cc1 | 27.4 | 3.5
43 | Cc1ccc(S(=O)(=O)N2C[C@@H](C(=O)O)[C@H](Sc3ccc(Cl)cc3)C[C@H]2c2cccc(Br)c2)cc1 | 20.4 to 22.8 | 0.2 to 3.2
44 | COc1ccc([C@H]2C(C(=O)O)=C[C@@H](C(C)(C)C)N2S(=O)(=O)c2ccc(C)cc2)cc1OC | 23.4 | 6.1
45 | Cc1ccc(S(=O)(=O)N2C[C@@H](C(=O)O)[C@H](SCCc3ccccc3)C[C@H]2c2cccc(Cl)c2)cc1 | 4.8 to 9.2 | 3.7
46 | Cc1ccc(S(=O)(=O)N2[C@@H](c3cccc(Br)c3)C(C(=O)O)=CC[C@H]2c2cccc(Br)c2)cc1 | 9.4 to 15.2 | 3.7
47 | Cc1ccc(S(=O)(=O)N2[C@@H](c3cccc(Br)c3)C(C(=O)O)=CC[C@H]2c2cccc(Cl)c2)cc1 | 11 to 23.1 | 7
48 | CC(C)CCS[C@H]1[C@@H](C(=O)O)[C@H](c2ccc(Cl)cc2)N(S(=O)(=O)c2ccccc2)[C@@H]1C(C)C | 28.1 | 5.9
49 | CCOc1ccc([C@@H]2C[C@@H](SCc3ccc(Cl)cc3)[C@H](C(=O)O)CN2S(=O)(=O)c2ccc(C)cc2)cc1 | 3.1 to 3.7 | 2.6
50 | Cc1ccc(S(=O)(=O)N2C[C@@H](C(=O)O)[C@H](SCCC(C)C)C[C@H]2c2cccc(Br)c2)cc1 | 13.7 to 19.2 | 2.3
51 | Cc1ccc(S(=O)(=O)N2C[C@@H](C(=O)O)[C@H](Sc3ccccc3)C[C@H]2c2ccccc2F)cc1 | 51 | 8.1
52 | Cc1ccc(S(=O)(=O)N2C[C@@H](C(=O)O)[C@H](Sc3ccc(Cl)cc3)C[C@H]2c2ccccc2)cc1 | 64.1 | 14.2
53 | COc1ccc([C@@H]2C[C@@H](Sc3ccc(Cl)cc3)[C@H](C(=O)O)CN2S(=O)(=O)c2ccccc2)cc1 | 88.8 | 13.4
54 | Cc1ccc(S(=O)(=O)N2[C@@H](c3ccc(Cl)cc3)C(C(=O)O)=CC[C@H]2c2ccc(Cl)c(Cl)c2)cc1 | 17.7 to 21.3 | 12.1
55 | COc1ccc([C@@H]2C[C@@H](SCCc3ccccc3)[C@H](C(=O)O)CN2S(=O)(=O)c2ccccc2)cc1 | 24.1 to 28.3 | 9.6
56 | C=CCS[C@H]1[C@@H](C(=O)O)[C@H](c2ccc(Cl)cc2)N(S(=O)(=O)c2ccccc2C)[C@@H]1CCCC | 23.1 | 8.4
57 | Cc1ccc([C@H]2C(C(=O)O)=CC[C@@H](c3ccc(Cl)c(Cl)c3)N2S(=O)(=O)c2ccc(C)cc2)cc1 | 12.4 to 17.4 | 15.6
58 | C=CCS[C@H]1[C@@H](C(=O)O)[C@H](c2ccc(Cl)c(Cl)c2)N(S(=O)(=O)c2ccc(C)cc2)[C@@H]1CCCCCC | 15.1 | 6.8
59 | Cc1ccc([C@@H]2C[C@@H](Sc3ccc(Cl)cc3)[C@H](C(=O)O)CN2S(=O)(=O)c2ccc(Cl)cc2)cc1 | 42.3 | 3.3
60 | Cc1ccc(S(=O)(=O)N2[C@H](CC3CCCC3)[C@@H](SCCC(=O)OC(C)(C)C)[C@@H](C(=O)O)[C@@H]2c2ccc(Cl)c(Cl)c2)cc1 | 16.1 | 7.3
